Test results: ChEMBL document CHEMBL5131389, “PSMA-targeted small-molecule docetaxel conjugate: Synthesis and preclinical evaluation” (Eur J Med Chem, 2022)
“And” between values parts separate entries of the source, which are not always exact repeats. Equal entries are not always repeated. The source made the active and inactive calls. The calls are words filed in the database; no cut-off is given here.

Experiments:
[1] = Chronic toxicity in rat assessed as increase in relative lung mass administered intravenously as pluronic F127 formulation for 4 intervals of 21 days and observed 3 weeks post last injection relative to control; conditions: in vivo, iv, 2544 h, time 106 day
[2] = Chronic toxicity in rat assessed as hair loss at 22.5 mg/kg, iv administered as pluronic F127 formulation at 4 intervals for 21 days and observed 3 weeks post last injection; assay type: organism-based; conditions: in vivo, 2544 h, time 106 day
[3] = Chronic toxicity in rat assessed as reduction in number of crossed squares at 22.5 mg/kg, iv administered as pluronic F127 formulation at 4 intervals for 21 days and observed 3 weeks post last injection; assay type: organism-based; conditions: in vivo, 2544 h, time 106 day
PC-3 [4] = experiment: Effect on cell stiffness in human PC-3 cells assessed as increase in young's modulus at 2.8 nM measured after 1 hr by topography based scanning ion-conductance microscopic analysis; assay type: functional
[5] = Subchronic toxicity in Wistar rat assessed as diarrhoea at 58 mg/kg, iv administered as pluronic F127 formulation daily for 28 days and observed on days 4 to 5; assay type: organism-based; conditions: in vivo, 672 h, time 28 day
[6] = C0 in Soviet Chinchilla rabbit at 8.1 mg/kg, iv administered as pluronic F127 formulation measured upto 72 hrs by high-performance liquid chromatography tandem mass spectrometric analysis; assay type: ADME, organism-based, Oryctolagus cuniculus; conditions: in vivo
[7] = Acute toxicity in ICR mouse assessed as kidney lesion at 183 to 960 mg/kg, iv administered as pluronic F127 formulation and measured for 14 days; assay type: organism-based; conditions: in vivo, 336 h, dose 183-960 mg/kg, time 14 day
[8] = Selectivity ratio of CC50 for cytotoxicity against human PC-3 cells to CC50 for cytotoxicity against human 22Rv1 cells
[9] = Toxicity in BALB/c nude mouse xenografted with human DU-145 cells assessed as animal death at 30 to 60 mg/kg, ip measured upto 30 days; assay type: organism-based; conditions: in vivo, 720 h, dose 30-60 mg/kg, time < 30 day
[10] = Acute toxicity in ICR mouse assessed as maximum tolerated dose administered intravenously as pluronic F127 formulation and measured for 14 days; conditions: in vivo, route iv, time 14 day
PC-3 [11] = experiment: Cytotoxicity against human PC-3 cells assessed as reduction in cell viability measured after 72 hrs by MTT assay; assay type: functional
[12] = Chronic toxicity in rat assessed as increase in creatinine concentration at 18.75 to 22.5 mg/kg, iv administered as pluronic F127 formulation at 4 intervals for 21 days and observed 3 weeks post last injection relative to control; assay type: organism-based; conditions: in vivo, 2544 h, dose 18.75-22.5 mg/kg, time 106 day
[13] = Chronic toxicity in rat assessed as increase in relative mass of stomach administered intravenously as pluronic F127 formulation at 4 intervals for 21 days and observed 3 weeks post last injection relative to control; assay type: tissue-based; conditions: in vivo, iv, 2544 h, time 106 day
CWR22R [14] = experiment: Antitumor activity against human 22Rv1 cells xenografted in Balb/c nude mouse assessed as tumor growth inhibition at 20 mg/kg, ip administered once in two days for three times and measured 4 days after the end of treatment relative to control; assay type: functional; conditions: 22Rv1, 240 h, time 10 day, read-out: TGI
[15] = Acute toxicity in ICR mouse assessed as decrease in body weight administered intravenously as pluronic F127 formulation and measured for 14 days; conditions: in vivo, iv, 336 h, dose 183-960 mg/kg, time 14 day
[16] = Acute toxicity in Wistar rat assessed as lethal dose administered intravenously as pluronic F127 formulation and measured for 14 days; conditions: in vivo, route iv, time 14 day
[17] = Volume of distribution in Albino Wistar rat at 15 mg/kg, iv administered as pluronic F127 formulation measured upto 72 hrs by high-performance liquid chromatography tandem mass spectrometric analysis; assay type: ADME, organism-based; conditions: in vivo
[18] = Chronic toxicity in Soviet Chinchilla rabbit assessed as increase in relative pancreas mass at 8.14 to 12.21 mg/kg, iv administered as pluronic F127 formulation at 4 intervals for 21 days and observed 3 weeks post last injection; assay type: organism-based, Oryctolagus cuniculus; conditions: in vivo, 2544 h, dose 8.14-12.21 mg/kg, time 106 day
[19] = Acute toxicity in Wistar rat assessed as animal death at 15 to 279 mg/kg, iv administered for 14 days as pluronic F127 formulation and measured after 3 days; assay type: organism-based; conditions: in vivo, 408 h, dose 15-279 mg/kg, time 17 day
[20] = Toxicity in Balb/c nude mouse xenografted with human 22Rv1 cells assessed as animal death at 10 mg/kg, ip measured upto 30 days; assay type: organism-based, CWR22R; conditions: in vivo, 720 h, time < 30 day
[21] = Acute toxicity in Wistar rat assessed as violation of motor activity in hind limb administered intravenously as pluronic F127 formulation and measured for 14 days; conditions: in vivo, iv, 336 h, dose 15-279 mg/kg, time 14 day
[22] = Chronic toxicity in rat assessed as increase in relative brain mass administered intravenously as pluronic F127 formulation at 4 intervals for 21 days and observed 3 weeks post last injection relative to control; assay type: tissue-based; conditions: in vivo, iv, 2544 h, time 106 day
[23] = Toxicity in Balb/c nude mouse xenografted with human 22Rv1 cells assessed as animal death at 20 mg/kg, ip measured upto 30 days; assay type: organism-based, CWR22R; conditions: in vivo, 720 h, time < 30 day
CWR22R [24] = experiment: Cytotoxicity against human 22Rv1 cells assessed as reduction in cell viability measured after 72 hrs by MTT assay; assay type: functional
[25] = Chronic toxicity in rat assessed as decrease in erythrocytes in blood administered intravenously as pluronic F127 formulation at 4 intervals for 21 days and observed 3 weeks post last injection relative to control; assay type: cell-based; conditions: iv, 2544 h, time 106 day
[26] = Chronic toxicity in Soviet Chinchilla rabbit assessed as decrease in body weight at 8.14 mg/kg, iv administered as pluronic F127 formulation at 4 intervals for 21 days and observed 3 weeks post last injection; assay type: organism-based, Oryctolagus cuniculus; conditions: in vivo, 2544 h, time 106 day
CWR22R [27] = experiment: Effect on cell stiffness in human 22Rv1 cells assessed as increase in young's modulus at 2.7 nM measured after 1 hr by topography based scanning ion-conductance microscopic analysis; assay type: functional
[28] = Acute toxicity in Wistar rat assessed as hypertrophied adrenal gland at 15 to 279 mg/kg, iv administered as pluronic F127 formulation and measured for 14 days; assay type: organism-based; conditions: in vivo, 336 h, dose 15-279 mg/kg, time 14 day
[29] = Acute toxicity in ICR mouse assessed as hypertrophied adrenal gland at 183 to 960 mg/kg, iv administered as pluronic F127 formulation and measured for 14 days; assay type: organism-based; conditions: in vivo, 336 h, dose 183-960 mg/kg, time 14 day
[30] = Chronic toxicity in rat assessed as reduction in standing up at 22.5 mg/kg, iv administered as pluronic F127 formulation at 4 intervals for 21 days and observed 3 weeks post last injection; assay type: organism-based; conditions: in vivo, 2544 h, time 106 day
[31] = Half-life in Soviet Chinchilla rabbit at 8.1 mg/kg, iv administered as pluronic F127 formulation measured upto 72 hrs by high-performance liquid chromatography tandem mass spectrometric analysis; assay type: ADME, organism-based, Oryctolagus cuniculus; conditions: in vivo
[32] = Subchronic toxicity in Wistar rat assessed as tolerance at 58 mg/kg, iv administered as pluronic F127 formulation daily for 28 days; assay type: organism-based; conditions: in vivo, 672 h, time 28 day
[33] = Chronic toxicity in rat assessed as reduction in number of peeping into holes at 22.5 mg/kg, iv administered as pluronic F127 formulation at 4 intervals for 21 days and observed 3 weeks post last injection; assay type: organism-based; conditions: in vivo, 2544 h, time 106 day

For `CC(=O)O[C@@]12CO[C@@H]1C[C@H](O)[C@@]1(C)C(=O)[C@H](O)C3=C(C)[C@@H](OC(=O)[C@H](OC(=O)CCCc4cn(CCCNC(=O)[C@H](Cc5ccc(O)cc5)NC(=O)[C@H](Cc5ccccc5)NC(=O)CCC(=O)NCCCCCC(=O)N(CCCC[C@H](NC(=O)N[C@@H](CCC(=O)O)C(=O)O)C(=O)O)Cc5cccc(Cl)c5)nn4)[C@@H](NC(=O)OC(C)(C)C)c4ccccc4)C[C@@](O)([C@@H](OC(=O)c4ccccc4)[C@H]21)C3(C)C`, the Activity [1] was “Toxic”, the Activity [2] was “Toxic” and the Activity [3] was “Toxic”. The Activity (PC-3 [4]) was “Active”, the Activity [5] was “Toxic” and the C0 at 72 h [6] was 79 µg/mL. The Activity [7] was “Toxic”, the Selectivity ratio [8] was 1 and the Activity [9] was “Non-Toxic”. The MTD at 336 h [10] was 183 mg/kg, the CC50 (PC-3 [11]) was 2.8 nM and the Activity [12] was “Toxic”. For the same compound, the Activity [13] was “Toxic”, the inhibition in vivo at 20 mg/kg (CWR22R [14]) was 85% and the Activity [15] was “Toxic”. For the same compound, the LD50 at 336 h [16] was 58 mg/kg and 30 µmol/kg, the Vd [17] was 0.631 L/kg and the Activity [18] was “Toxic”. The Activity [19] was “Toxic”, the Activity [20] was “Non-Toxic” and the Activity [21] was “Toxic”. The Activity [22] was “Toxic”, the Activity [23] was “Non-Toxic” and the CC50 (CWR22R [24]) was 2.7 nM. For the same compound, the Activity [25] was “Toxic”, the Activity [26] was “Toxic” and the Activity (CWR22R [27]) was “Active”. For the same compound, the Activity [28] was “Toxic”, the Activity [29] was “Toxic” and the Activity [30] was “Toxic”. For the same compound, the half-life [31] was 8.1 h, the Activity [32] was “Toxic” and the Activity [33] was “Toxic”.
